The text below walks through data of PMC4104029, “Mechanism of Action of Compound-13: An α1-Selective Small Molecule Activator of AMPK” (Chemistry & Biology, 2014).

Molecules are shown by their SMILES.

The test addresses Yeast acetate CoA ligase. Kind of test: Acetate CoA ligase assay. It counts as biochemical. The settings on record: 0–100 μM. The source says:
(Needleman and Wunsch, 1970) and edited using ESPript (Gouet, et al., 2003). Secondary structure was derived from PDBID 2Y94. The phosphotransferase domain is shaded green (T-loop phosphorylation site is indicated with a star), the autoinhibitory domain in blue and the C-terminal domain in yellow. Regulatory elements in the α-linker are also indicated: α-hook in pink and α-RIMs in orange. Black lines indicate the position of the epitopes recognised by α-subunit specific antibodies used in this study. (B) COS-1 cells were seeded into 6-well plates and transiently transfected with pCMV-AMPKβ1, pCMV-AMPKγ1 and either pCMV-FLAG-AMPKα2 WT or pCMV-FLAG-AMPKα2/α1 LOOP chimera using FuGENE HD.
After 24 h cells were treated with the indicated compounds for 1 h and kinase activity determined in anti-FLAG immunoprecipitates under standard conditions. […]
Mouse hepatocytes were incubated with the indicated compounds in the absence (Resting) or presence of 10 mU/ml insulin for 60 min. Lysates were analysed by Western blotting using the indicated antibodies. […]
Yeast acetate CoA ligase (Sigma) was assayed in reactions containing 50 mM TES pH 7.4, 0.1 mM EDTA, 5 mM MgCl2, 4 mM ATP, 0.2 mM coenzyme A, 5 mM DTT and increasing concentrations of C2 and C13 (0 – 100 μM). The formation of pyrophosphate (PPi) was monitored by reduction of PPi-molybdate complexes as described in Methods. […]

Turning to `CC(C)C(=O)OCOP(=O)(OCOC(=O)C(C)C)c1ccc(C2=NOC(=O)C2)o1` [Compound C13], the IC50 stood at 33 ± 2.2 µM.

By IC50 is commonly meant the concentration that gives 50% inhibition. Read a low IC50 as higher potency.
